Data as given in BigSolDB 2.1.

COC(=O)c1cccc(C(=O)OC)n1
solubility (mole fraction)
Conditions	278.15 K	283.15 K	288.15 K	293.15 K	298.15 K	303.15 K	308.15 K	313.15 K	318.15 K	323.15 K
in DMSO	–	–	–	0.0174	0.0205	0.0271	0.0323	0.0435	0.0503	0.0658
in THF	0.00553	0.00773	0.00891	0.0115	0.0138	0.0166	0.0219	0.0293	0.0373	0.046
in ethanol	0.00042	0.00068	0.00103	0.00147	0.00215	0.00323	0.00436	0.00576	0.00757	0.0101
in ethyl acetate	0.00335	0.00364	0.00549	0.0082	0.0105	0.0149	0.019	0.0261	0.0326	–
in isopentyl acetate	0.00146	0.00192	0.00252	0.00334	0.00438	0.00576	0.00729	0.00944	0.0158	0.0216
in isopropanol	0.00032	0.00049	0.00071	0.00116	0.0017	0.0022	0.0032	0.00414	0.00579	0.00785
in isopropyl acetate	0.00191	0.00235	0.00343	0.00516	0.00721	0.0094	0.0117	0.0161	0.0202	0.0262
in methanol	0.00057	0.00092	0.00142	0.00199	0.00283	0.00425	0.0055	0.0075	0.00974	0.012
in methyl acetate	0.00524	0.00759	0.0118	0.0145	0.0201	0.0255	0.0312	0.041	0.0489	0.0635
in n-butyl acetate	0.0015	0.00203	0.00286	0.00462	0.00671	0.00883	0.0113	0.0158	0.0201	0.026
in n-pentyl acetate	–	0.0027	0.0038	0.00459	0.00625	0.00851	0.0111	0.015	0.0189	0.0243
in n-propanol	0.00032	0.0005	0.00078	0.0011	0.00171	0.00228	0.00357	0.00476	0.00621	0.00839
